Measurements published in patent US20260365682A1, “MODULATORS OF TNF-ALPHA ACTIVITY” (Forward Therapeutics, Inc., priority 2022, published 2026).

target: T1, TNF-α (Homo sapiens, UniProt P01375); assay: TNF-α Induced HEK Blue Cellular Assay (secreted alkaline phosphatase expression, QUANTI-Blue); type: cell-based; settings: HEK Blue TNFα reporter cells; TNF-α 100 μg/ml; 24 hrs at 37° C.; inhibition of secreted alkaline phosphatase; read-out: IC50 value
T1 construct: purchased R&D 210-TA-020/CF
In short: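 HEK Blue TNFα reporter cells (10,000/well) in DMEM with 10% FBS received compound ([…] to 0.5 nM final) and TNF-α at […] final for 24 h at 37° C. Secreted alkaline phosphatase read with QUANTI-Blue at 620 nm. IC50 came from a 4-parameter logistic fit after normalising to unstimulated and stimulated DMSO controls.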

T1 sequence (P01375 77-233 limits assumed): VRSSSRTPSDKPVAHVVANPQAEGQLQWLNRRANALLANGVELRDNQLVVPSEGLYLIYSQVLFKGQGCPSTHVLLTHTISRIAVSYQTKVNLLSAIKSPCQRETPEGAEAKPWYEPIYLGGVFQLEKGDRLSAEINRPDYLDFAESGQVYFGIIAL

| Compound | IC50 [µM] |
| --- | --- |
| [2H]C([2H])([2H])N1C(=O)c2cccc(OC(F)F)c2[C@H]2C[C@@H]1c1nc3ccc(C#CC4(C)CCN(C(=O)C5CC5)CC4)cc3n12 [Example 181, (7R,14R)-11-((1-(cyclopropanecarbonyl)-4-methylpiperidin-4-yl)ethynyl)-1-(difluoromethoxy)-6-(methyl-d3)-6,7-dihydro-7,14-methanobenzo[f]benzo[4,5]imidazo[1,2-a][1,4]diazocin-5(14H)-one] | 10 to 30 |
| [2H]C([2H])([2H])N1C(=O)c2cccc(OC(F)F)c2[C@H]2C[C@@H]1c1nc3ccc(C#CC4(C)CCN(C(=O)C5(C)CC5)C4)cc3n12 (stereo partly drawn) [Example 182, (7R,14R)-1-(difluoromethoxy)-6-(methyl-d3)-11-((3-methyl-1-(1-methylcyclopropane-1-carbonyl)pyrrolidin-3-yl)ethynyl)-6,7-dihydro-7,14-methanobenzo[f]benzo[4,5]imidazo[1,2-a][1,4]diazocin-5(14H)-one] | 0.1 to 1 |
| [2H]C([2H])([2H])N1C(=O)c2cccc(OC(F)F)c2[C@H]2C[C@@H]1c1nc3ccc(C#CC4CCCN(C(=O)C5CC5)C4)cc3n12 (stereo partly drawn) [Example 184, (7R,14R)-11-((1-(cyclopropanecarbonyl)piperidin-3-yl)ethynyl)-1-(difluoromethoxy)-6-(methyl-d3)-6,7-dihydro-7,14-methanobenzo[f]benzo[4,5]imidazo[1,2-a][1,4]diazocin-5(14H)-one] | < 0.1 |
| [2H]C([2H])([2H])N1C(=O)c2cccc(OC(F)F)c2[C@H]2C[C@@H]1c1nc3ccc(C#CC4CCN(S(C)(=O)=O)CC4)cc3n12 [Example 185, (7R,14R)-1-(difluoromethoxy)-6-(methyl-d3)-11-((1-(methylsulfonyl)piperidin-4-yl)ethynyl)-6,7-dihydro-7,14-methanobenzo[f]benzo[4,5]imidazo[1,2-a][1,4]diazocin-5(14H)-one] | < 0.1 |
| [2H]C([2H])([2H])N1C(=O)c2cccc(OC(F)F)c2[C@H]2C[C@@H]1c1nc3ccc(C#CC4CCN(C(=O)C5(O)CC5)CC4)cc3n12 [Example 187, (7R,14R)-1-(difluoromethoxy)-11-((1-(1-hydroxycyclopropane-1-carbonyl)piperidin-4-yl)ethynyl)-6-(methyl-d3)-6,7-dihydro-7,14-methanobenzo[f]benzo[4,5]imidazo[1,2-a][1,4]diazocin-5(14H)-one] | < 0.1 |
| [2H]C([2H])([2H])N1C(=O)c2cccc(OC(F)F)c2[C@H]2C[C@@H]1c1nc3ccc(C#CC4(C(F)F)CC4)cc3n12 [Example 188, (7R,14R)-1-(difluoromethoxy)-11-((1-(difluoromethyl)cyclopropyl)ethynyl)-6-(methyl-d3)-6,7-dihydro-7,14-methanobenzo[f]benzo[4,5]imidazo[1,2-a][1,4]diazocin-5(14H)-one] | 0.1 to 1 |
| [2H]C([2H])([2H])N1C(=O)c2cccc(OC(F)F)c2[C@H]2C[C@@H]1c1nc3ccc(C#CC4(C)CCN(C(=O)C5CC5)C4)cc3n12 (stereo partly drawn) [Example 189, (7R,14R)-11-((1-(cyclopropanecarbonyl)-3-methylpyrrolidin-3-yl)ethynyl)-1-(difluoromethoxy)-6-(methyl-d3)-6,7-dihydro-7,14-methanobenzo[f]benzo[4,5]imidazo[1,2-a][1,4]diazocin-5(14H)-one] | 10 to 30 |
| [2H]C([2H])([2H])N1C(=O)c2cccc(OC(F)F)c2[C@H]2C[C@@H]1c1nc3ccc(C#CC4(C)CCN(C(=O)C(C)(C)C)C4)cc3n12 (stereo partly drawn) [Example 190, (7R,14R)-1-(difluoromethoxy)-6-(methyl-d3)-11-((3-methyl-1-pivaloylpyrrolidin-3-yl)ethynyl)-6,7-dihydro-7,14-methanobenzo[f]benzo[4,5]imidazo[1,2-a][1,4]diazocin-5(14H)-one] | 0.1 to 1 |
| [2H]C([2H])([2H])N1C(=O)c2cccc(OC(F)F)c2[C@H]2C[C@@H]1c1nc3ccc(C#CC(C)(C)CO)cc3n12 [Example 191, (7R,14R)-1-(difluoromethoxy)-11-(4-hydroxy-3,3-dimethylbut-1-yn-1-yl)-6-(methyl-d3)-6,7-dihydro-7,14-methanobenzo[f]benzo[4,5]imidazo[1,2-a][1,4]diazocin-5(14H)-one] | 10 to 30 |
| [2H]C([2H])([2H])N1C(=O)c2cccc(OC(F)F)c2[C@H]2C[C@@H]1c1nc3ccc(C#CC4(C)CCN(C(=O)C(C)(C)O)C4)cc3n12 (stereo partly drawn) [Example 192, (7R,14R)-1-(difluoromethoxy)-11-((1-(2-hydroxy-2-methylpropanoyl)-3-methylpyrrolidin-3-yl)ethynyl)-6-(methyl-d3)-6,7-dihydro-7,14-methanobenzo[f]benzo[4,5]imidazo[1,2-a][1,4]diazocin-5(14H)-one] | 10 to 30 |
| [2H]C([2H])([2H])N1C(=O)c2cccc(OC(F)F)c2[C@H]2C[C@@H]1c1nc3ccc(C#CC4CC4(F)F)cc3n12 (stereo partly drawn) [Example 196, (7R,14R)-11-((2,2-difluorocyclopropyl)ethynyl)-1-(difluoromethoxy)-6-(methyl-d3)-6,7-dihydro-7,14-methanobenzo[f]benzo[4,5]imidazo[1,2-a][1,4]diazocin-5(14H)-one] | 0.1 to 1 |
| [2H]C([2H])([2H])N1C(=O)c2cccc(OC(F)F)c2[C@H]2C[C@@H]1c1nc3ccc(C#CC4CCN(C(=O)C5CC5)C4)cc3n12 (stereo partly drawn) [Example 201, (7R,14R)-11-((1-(cyclopropanecarbonyl)pyrrolidin-3-yl)ethynyl)-1-(difluoromethoxy)-6-(methyl-d3)-6,7-dihydro-7,14-methanobenzo[f]benzo[4,5]imidazo[1,2-a][1,4]diazocin-5(14H)-one] | 10 to 30 |
| [2H]C([2H])([2H])N1C(=O)c2cccc(OC(F)F)c2[C@H]2C[C@@H]1c1nc3ccc(C#CC4CCN(C(=O)C5(O)CC5)C4)cc3n12 (stereo partly drawn) [Example 203, (7R,14R)-1-(difluoromethoxy)-11-((1-(1-hydroxycyclopropane-1-carbonyl)pyrrolidin-3-yl)ethynyl)-6-(methyl-d3)-6,7-dihydro-7,14-methanobenzo[f]benzo[4,5]imidazo[1,2-a][1,4]diazocin-5(14H)-one] | < 0.1 |

Results, then the compound that gave them:

| IC50 [µM] | Compound |
| --- | --- |
| < 0.1 | [2H]C([2H])([2H])N1C(=O)c2cccc(OC(F)F)c2[C@H]2C[C@@H]1c1nc3ccc(C#CC4CCCN(C(C)=O)C4)cc3n12 (stereo partly drawn) [Example 183, (7R,14R)-11-((1-acetylpiperidin-3-yl)ethynyl)-1-(difluoromethoxy)-6-(methyl-d3)-6,7-dihydro-7,14-methanobenzo[f]benzo[4,5]imidazo[1,2-a][1,4]diazocin-5(14H)-one] |
| < 0.1 | [2H]C([2H])([2H])N1C(=O)c2cccc(OC(F)F)c2[C@H]2C[C@@H]1c1nc3ccc(C#CC4CCN(C(=O)C(C)(C)O)CC4)cc3n12 [Example 186, (7R,14R)-1-(difluoromethoxy)-11-((1-(2-hydroxy-2-methylpropanoyl)piperidin-4-yl)ethynyl)-6-(methyl-d3)-6,7-dihydro-7,14-methanobenzo[f]benzo[4,5]imidazo[1,2-a][1,4]diazocin-5(14H)-one] |
| 0.1 to 1 | [2H]C([2H])([2H])N1C(=O)c2cccc(OC(F)F)c2[C@H]2C[C@@H]1c1nc3ccc(C#CC4CN(C(=O)C(C)(C)C#N)C4)cc3n12 [Example 193, 3-(3-(((7R,14R)-1-(difluoromethoxy)-6-(methyl-d3)-5-oxo-5,6,7,14-tetrahydro-7,14-methanobenzo[f]benzo[4,5]imidazo[1,2-a][1,4]diazocin-11-yl)ethynyl)azetidin-1-yl)-2,2-dimethyl-3-oxopropanenitrile] |
| 10 to 30 | [2H]C([2H])([2H])N1C(=O)c2cccc(OC(F)F)c2[C@H]2C[C@@H]1c1nc3ccc(C#CC4CN(C(=O)C5CC5(F)F)C4)cc3n12 (stereo partly drawn) [Example 194, (7R,14R)-11-((1-(2,2-difluorocyclopropane-1-carbonyl)azetidin-3-yl)ethynyl)-1-(difluoromethoxy)-6-(methyl-d3)-6,7-dihydro-7,14-methanobenzo[f]benzo[4,5]imidazo[1,2-a][1,4]diazocin-5(14H)-one] |
| < 0.1 | [2H]C([2H])([2H])N1C(=O)c2cccc(OC(F)F)c2[C@H]2C[C@@H]1c1nc3ccc(C#CC4CN(C(=O)C5(O)CC5)C4)cc3n12 [Example 195, (7R,14R)-1-(difluoromethoxy)-11-((1-(1-hydroxycyclopropane-1-carbonyl)azetidin-3-yl)ethynyl)-6-(methyl-d3)-6,7-dihydro-7,14-methanobenzo[f]benzo[4,5]imidazo[1,2-a][1,4]diazocin-5(14H)-one] |
| 10 to 30 | [2H]C([2H])([2H])N1C(=O)c2cccc(OC(F)F)c2[C@H]2C[C@@H]1c1nc3ccc(C#CC4CN(CC(C)(C)O)C4)cc3n12 [Example 197, (7R,14R)-1-(difluoromethoxy)-11-((1-(2-hydroxy-2-methylpropyl)azetidin-3-yl)ethynyl)-6-(methyl-d3)-6,7-dihydro-7,14-methanobenzo[f]benzo[4,5]imidazo[1,2-a][1,4]diazocin-5(14H)-one] |
| 0.1 to 1 | [2H]C([2H])([2H])N1C(=O)c2cccc(OC(F)F)c2[C@H]2C[C@@H]1c1nc3ccc(C#CC4CCN(C(=O)C(C)(C)O)C4)cc3n12 (stereo partly drawn) [Example 202, (7R,14R)-1-(difluoromethoxy)-11-((1-(2-hydroxy-2-methylpropanoyl)pyrrolidin-3-yl)ethynyl)-6-(methyl-d3)-6,7-dihydro-7,14-methanobenzo[f]benzo[4,5]imidazo[1,2-a][1,4]diazocin-5(14H)-one] |

same assay, conditions: IC50 value, HEK Blue TNFα reporter cells; TNF-α 100 μg/ml; 24 hrs at 37° C.; inhibition of secreted alkaline phosphatase

| IC50 [µM] | Compound |
| --- | --- |
| 10 to 30 | [2H]C([2H])([2H])N1C(=O)c2cccc(OC(F)F)c2[C@H]2C[C@@H]1c1nc3ccc(C#CC4CN(CC(F)F)C4)cc3n12 [Example 198, (7R,14R)-11-((1-(2,2-difluoroethyl)azetidin-3-yl)ethynyl)-1-(difluoromethoxy)-6-(methyl-d3)-6,7-dihydro-7,14-methanobenzo[f]benzo[4,5]imidazo[1,2-a][1,4]diazocin-5(14H)-one] |
